# Laboratory results as given in patent publication US20030207812A1, “Cd45 inhibitors” (priority 2002, published 2003).
# Like-named read-outs stand apart in the source and are kept apart here. Where a SMILES comes first, the peptide text is derived from it. The star is where a group is joined. 3Phenanthroyl(9,10-dioxo) = O=C1C(=O)c2ccc(C(=O)*)cc2-c2ccccc21
# Experiments:
# [1] = target: T1, CD45 (Homo sapiens, UniProt P08575); assay: Phosphatase assay using pNPP as substrate; type: biochemical; details: read-out: pNPP IC50
# T1 construct: incubating the cytosolic portion of CD45 with the compounds and p-nitrophenyl phosphate (pNPP); purchased BIOMOL (Plymouth Meeting, Pa.)
# T1 sequence (P08575 599-1306 limits assumed): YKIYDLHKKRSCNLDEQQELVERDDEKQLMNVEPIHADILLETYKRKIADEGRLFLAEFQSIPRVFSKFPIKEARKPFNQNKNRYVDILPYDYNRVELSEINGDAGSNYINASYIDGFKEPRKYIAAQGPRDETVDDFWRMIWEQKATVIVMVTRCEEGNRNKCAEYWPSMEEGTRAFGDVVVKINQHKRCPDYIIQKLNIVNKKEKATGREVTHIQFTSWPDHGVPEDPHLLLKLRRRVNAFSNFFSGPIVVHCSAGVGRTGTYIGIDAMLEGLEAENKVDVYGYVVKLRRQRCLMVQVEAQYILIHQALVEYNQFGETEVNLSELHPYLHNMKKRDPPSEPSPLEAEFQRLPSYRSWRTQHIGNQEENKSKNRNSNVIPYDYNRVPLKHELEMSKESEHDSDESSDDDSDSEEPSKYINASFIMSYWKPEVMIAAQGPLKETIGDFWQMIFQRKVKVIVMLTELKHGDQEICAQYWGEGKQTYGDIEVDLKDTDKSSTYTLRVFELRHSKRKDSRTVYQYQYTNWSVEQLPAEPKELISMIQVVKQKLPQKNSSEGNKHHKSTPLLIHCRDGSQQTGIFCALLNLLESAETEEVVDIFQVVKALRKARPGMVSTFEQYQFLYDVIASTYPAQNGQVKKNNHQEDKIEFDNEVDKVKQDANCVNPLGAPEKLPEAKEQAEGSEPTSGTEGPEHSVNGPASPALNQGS
# Method: Phosphatase assay using pNPP as substrate:
# CD45 enzyme was obtained from BIOMOL (Plymouth Meeting, Pa.). Phosphatase activity was assayed in a buffer containing final concentrations of 25 mM imidazole at pH 7.0, 50 mM NaCl, 2.5 mM ethylenediaminetetraacetic acid (“EDTA”), 5 mM dithiothreitol (“DTT”) and 10 μg/mL bovine serum albumin (“BSA”) using pNPP as a substrate.
# [2] = target: T1, CD45; assay: Phosphatase assay using lck 10-mer as substrate; type: biochemical
# Method: Phosphatase assay using lck 10-mer as substrate:
# Phosphatase activity was assayed in 96 well plates in a buffer containing final concentrations of 25 mM HEPES at pH 7.2, 5 mM DTT and 10 μg/mL BSA using the lck carboxy-terminal peptide TEGQpYQPQP as the substrate (Cho, H., Krishnaraj, R., Itoh, M., Kitas, E., Bannwarth, W., Saito, H., Walsh, C. T. 1993. Substrate specificities of catalytic fragments of protein tyrosine phosphatases (HPTPb, LAR, and CD45) toward the phosphotyrosylpeptide substrates and thiophosphotyrosylated peptides as inhibitors. Protein Science 2:977-984). Compounds were tested in a range from 30 to 0.01 μM in a final concentration of 5% DMSO. Enzyme was incubated with substrate with or without compound, at room temperature for 1.5 h. At the end of the incubation period, BIOMOL “Green Reagent” (BIOMOL, Plymouth Meeting, Pa.) was added to each well, the plates incubated at room temperature for 30 min and absorbance read at 620 nm.
# [3] = in vitro; details: human
# Method: (§1) Calcein-AM (Molecular Probes. Eugene, Oreg.) uptake, as a quantitative measure of cell viability, was used to evaluate the toxic effect of compounds on T cells.
# (§2) The T-cell lymphoblasts were purified by separation over Lymphoprep, plated at 2×10^5/well in a round bottom 96-well plate containing RPMI with compound and incubated overnight at 37° C. in an incubator containing 5% CO2. The dilution scheme and culture media were the same as those used in the T-cell proliferation assay. After the incubation period, cells were washed with Dulbecco's phosphate-buffered saline (D-PBS) and incubated with 1 μM Calcein-AM for 30-45 mim in D-PBS as described in the technical sheet provided with The LIVE/DEAD Viability/Cytotoxicity Kit from Molecular Probes.
# [4] = system: T cells (PBMC); assay: cells; type: cell-based, human; details: read-out: T cell prolif. IC50
# Method: Cell isolation and T cell proliferation assay:
# Whole blood was obtained from healthy human blood donors. Peripheral blood mononuclear cells (“PBMC”) were isolated using Lymphoprep density-gradient centrifugation (Nycomed Amersham, Oslo, Norway), washed, counted and resuspended at 2×10^6 cells/mL in RPMI 1640 medium containing glutamine, 0.1 mg/mL gentamycin and 10% heat inactivated human serum. PBMC were transferred to 96-well plates (2×10^5 cells/well) containing compound or vehicle control, with the final concentration of DMSO not to exceed 0.3%, and incubated for 1 hour before addition of the activating anti-CD3 antibody, OKT3 (30ng/mL). After 24 hours in culture, the cells were pulsed with [^3H]thymidine (1 μCi/well) overnight and harvested the next day onto 96-well Packard GF/C filter plates using a Packard Cell Harvester (Packard Instruments, Meriden, Conn.). The filter plate was dried, the bottom of the plate sealed, 25 μL of Microscint 20 scintillation fluid added to each well, the top of the plate sealed with TopSeal-A, and the plate counted on a Packard TopCount. The data from the TopCount is transferred into Excel 5 (Microsoft, Redmond, Wash.) and formatted for EC50 determination using Prism software (GraphPad Software, San Diego, Calif.).
# [5] = Cytotoxicity assay (Calcein-AM uptake); details: human, PHA-expanded T-cell lymphoblasts from PBMC
# Method: as §1, §2
# [6] = CD45 phosphatase, pNPP substrate, pH 7.0
# [7] = CD45 phosphatase, lck carboxy-terminal peptide TEGQpYQPQP substrate, pH 7.2, read-out: Ick IC50
# [8] = human PBMC, OKT3 30 ng/mL, [3H]thymidine
"IC50 [1, 6] [nM]","IC50 [2, 7] [nM]",SMILES,IC50 ([1]; pH 7) [nM],IC50 [2] [nM],CC50 [3] [nM],"IC50 [4, 8] [nM]",CC50 [5] [nM],IC50 ([4]; Homo sapiens) [nM]
,,"NC(=O)CC[C@H](NC(=O)[C@@H]1CCCN1C(=O)[C@H](CCC(N)=O)NC(=O)[C@H](CCC(=O)O)NC(=O)c1ccc2c(c1)-c1ccccc1C(=O)C2=O)C(=O)N1CCC[C@H]1C(=O)O [Example 24] ({3Phenanthroyl(9,10-dioxo)}-EQPQP-OH)",600,2400,> 30000,,,
,,"NC(=O)CC[C@H](NC(=O)[C@@H]1CCCN1C(=O)[C@H](CCC(N)=O)NC(=O)CNC(=O)c1ccc2c(c1)-c1ccccc1C(=O)C2=O)C(=O)N1CCC[C@H]1C(=O)O [Example 25] ({3Phenanthroyl(9,10-dioxo)}-GQPQP-OH)",1200,2500,> 30000,,,
,,"NC(=O)CC[C@H](NC(=O)c1ccc2c(c1)-c1ccccc1C(=O)C2=O)C(=O)N[C@@H](CCC(N)=O)C(=O)N1CCC[C@H]1C(=O)N[C@@H](CCC(N)=O)C(=O)N1CCC[C@H]1C(=O)O [Example 26] ({3Phenanthroyl(9,10-dioxo)}-QQPQP-OH)",700,2300,> 30000,,,
,,"NC(=O)CC[C@H](NC(=O)[C@@H]1CCCN1C(=O)[C@H](CCC(=O)O)NC(=O)CNC(=O)c1ccc2c(c1)-c1ccccc1C(=O)C2=O)C(=O)N1CCC[C@H]1C(=O)O [Example 27] ({3Phenanthroyl(9,10-dioxo)}-GEPQP-OH)",700,3100,> 30000,,,
,,"NC(=O)CC[C@H](NC(=O)c1ccc2c(c1)-c1ccccc1C(=O)C2=O)C(=O)N[C@@H](CCC(=O)O)C(=O)N1CCC[C@H]1C(=O)N[C@@H](CCC(N)=O)C(=O)N1CCC[C@H]1C(=O)O [Example 28] ({3Phenanthroyl(9,10-dioxo)}-QEPQP-OH)",1100,2200,> 30000,,,
,,"NC(=O)CC[C@H](NC(=O)CNC(=O)c1ccc2c(c1)-c1ccccc1C(=O)C2=O)C(=O)NCC(=O)N[C@@H](CCC(N)=O)C(=O)N1CCC[C@H]1C(=O)O [Example 29] ({3Phenanthroyl(9,10-dioxo)}-GQGQP-OH)",1100,2500,> 30000,,,
,,"NC(=O)CC[C@H](NC(=O)c1ccc2c(c1)-c1ccccc1C(=O)C2=O)C(=O)N[C@@H](CCC(N)=O)C(=O)NCC(=O)N[C@@H](CCC(N)=O)C(=O)N1CCC[C@H]1C(=O)O [Example 30] ({3Phenanthroyl(9,10-dioxo)}-QQGQP-OH)",900,1700,> 30000,,,
800,2900,"COC(=O)CCCC(=O)Nc1ccc2c(c1)-c1ccccc1C(=O)C2=O [Example 77, 4-(9,10-Dioxo-9,10-dihydro-phenanthren-3-ylcarbamoyl)-butyric Acid Methyl Ester]",,,,1600,9000,
5900,4900,"COC(=O)CCC(=O)Nc1ccc2c(c1)C(=O)C(=O)c1ccccc1-2 [Example 80, N-(9,10-Dioxo-9,10-dihydro-phenanthren-2-yl)-succinamic Acid Methyl Ester]",,,,700,6500,
1200,2500,"CC(=O)Nc1ccc2c(c1)C(=O)C(=O)c1ccccc1-2 [Example 81, N-(9,10-Dioxo-9,10-dihydro-phenanthren-2-yl)-acetamide]",,,,200,900,
800,2600,"Nc1ccc2c(c1)C(=O)C(=O)c1cccc([N+](=O)[O-])c1-2 [Example 84, 2-amino-5-nitro-phenanthrene-9,10-dione]",,,,700,4000,
1400,2800,"Nc1ccc2c(c1)C(=O)C(=O)c1cccc(N)c1-2 [Example 85, 2,5-diamino-phenanthrene-9,10-dione]",,,,500,4000,
800,2900,"Nc1cccc2c1-c1ccccc1C(=O)C2=O [Example 89, 4-Amino-phenanthrene-9,10-dione]",,,,200,9000,
400,4700,"COC(=O)CCC(=O)Nc1cccc2c1C(=O)C(=O)c1ccccc1-2 [Example 91, N-(9,10-Dioxo-9,10-dihydro-phenanthren-1-yl)-succinamic Acid Methyl Ester]",,,,500,9000,
2400,5400,"O=C1C(=O)c2cc([N+](=O)[O-])ccc2-c2ccccc21 [Example 92, 2-Nitro-phenanthrene-9,10-dione]",,,,1600,10000,
370,3100,"O=C1C(=O)c2cc(Br)ccc2-c2ccccc21 [Example 96, 2-Bromo-phenanthrene-9,10-dione]",,,,600,5000,
1000,3300,"O=C(O)c1ccc2c(c1)C(=O)C(=O)c1ccccc1-2 [Example 97, 9,10-Dioxo-9,10-dihydro-phenanthrene-2-carboxylic Acid]",,,,> 30000,> 30000,
500,4900,"O=C1C(=O)c2ccc([N+](=O)[O-])cc2-c2ccccc21 [Example 99, 3-Nitro-phenanthrene-9,10-dione]",,,,200,2800,
800,4200,"CC(=O)c1ccc2c(c1)-c1ccccc1C(=O)C2=O [Example 100, 3-Acetyl-phenanthrene-9,10-dione]",,,,800,3500,
800,2900,"CC(=O)c1ccc2c(c1)C(=O)C(=O)c1ccccc1-2 [Example 101, 2-Acetyl-phenanthrene-9,10-dione]",,,,1100,4500,
600,4900,"CC(C)(C)OC(=O)CNC(=O)c1ccc2c(c1)C(=O)C(=O)c1ccccc1-2 [Example 103, [(9,10-Dioxo-9,10-dihydro-phenanthrene-2-carbonyl)-amino]-acetic acid tert-butyl ester]",,,,400,10000,
500,3400,"O=C(O)CNC(=O)c1ccc2c(c1)-c1ccccc1C(=O)C2=O [Example 104, [(9,10-dioxo-9,10-dihydro-phenanthrene-3-carbonyl)-amino]-acetic acid]",,,,6500,> 30000,
800,2200,"O=C(O)CNC(=O)c1ccc2c(c1)C(=O)C(=O)c1ccccc1-2 [Example 105, [(9,10-Dioxo-9,10-dihydro-phenanthrene-2-carbonyl)-amino]-acetic acid]",,,,4400,> 30000,

SMILES,"IC50 [1, 6] [nM]","IC50 [2, 7] [nM]",IC50 ([1]; pH 7) [nM],IC50 [2] [nM],CC50 [3] [nM],"IC50 [4, 8] [nM]",CC50 [5] [nM],IC50 ([4]; Homo sapiens) [nM]
"O=C1C(=O)c2cc([N+](=O)[O-])ccc2-c2ccc([N+](=O)[O-])cc21 [Example 94, 2,7-Dinitro-phenanthrene-9,10-dione]",4100,5000,,,,,8000,500
